The fraction unbound is the share of the substance not bound to proteins or other matrix. By ED50 is commonly meant the midpoint of the dose-response relation.

A short description of series [1]: Protein binding in rat plasma, equilibrium dialysis. Type of series: in vitro ADME. The conditions noted are these: equilibrium dialysis 5 hours 37°C, Theravance, Inc., unpublished data.
Procedure: (§1) The in vitro unbound fraction of reuptake inhibitors in rat brain homogenates (5 µM) and in rat plasma protein (1 µM) was evaluated using equilibrium dialysis using the HT-Dialysis device (Gayles-Ferry, CT). Brain homogenate or plasma was spiked with test compounds and dialyzed against blank PBS for 5 hours at 37°C. The matrices from both sides of the dialysis membranes were equalized and extracted with acetonitrile. Unbound fractions for each compound were calculated as the ratio of peak areas from the PBS side to peak areas from the tissue or plasma side. Peak areas were corrected for dilution of the tissue made prior to spiking compound. Quantification was via LC/MS/MS.
Series [2] relates to rat formalin model.
For series [3], the target named is T1, SERT (Rattus norvegicus, UniProt P31652). The following applies: summary over 3 and 10 mg/kg IP (discussion).
T1 sequence (P31652 whole entry): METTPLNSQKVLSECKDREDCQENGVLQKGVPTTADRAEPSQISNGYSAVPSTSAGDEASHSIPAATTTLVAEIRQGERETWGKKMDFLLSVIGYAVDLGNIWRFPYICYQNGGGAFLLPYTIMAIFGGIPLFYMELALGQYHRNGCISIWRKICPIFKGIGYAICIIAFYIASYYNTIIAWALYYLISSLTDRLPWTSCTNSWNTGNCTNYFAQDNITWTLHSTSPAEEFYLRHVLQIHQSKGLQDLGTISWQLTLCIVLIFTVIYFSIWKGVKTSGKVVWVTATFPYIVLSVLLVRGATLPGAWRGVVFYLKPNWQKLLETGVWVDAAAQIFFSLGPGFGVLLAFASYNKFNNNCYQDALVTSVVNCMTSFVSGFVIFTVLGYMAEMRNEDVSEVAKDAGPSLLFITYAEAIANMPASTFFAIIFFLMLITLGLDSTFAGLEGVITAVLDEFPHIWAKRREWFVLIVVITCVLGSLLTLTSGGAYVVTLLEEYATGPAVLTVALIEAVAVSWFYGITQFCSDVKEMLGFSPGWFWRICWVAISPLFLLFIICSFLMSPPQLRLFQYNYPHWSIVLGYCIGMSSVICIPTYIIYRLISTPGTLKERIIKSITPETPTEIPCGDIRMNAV
Procedure: (§2) Ex vivo occupancy studies were performed similarly to those described previously [31]. At a single time point at the conclusion of phase 2A (75 min post-dose), a 5 mm^2 piece of frontal cortex was dissected, frozen rapidly, and stored at −80°C until use. Cortical crude homogenates were prepared and the initial rates (vi(vehicle) or vi, respectively) of [^3H]-citalopram (SERT) or [^3H]-nisoxetine (NET) binding determined over a 3-min time course. The % NET or SERT transporter occupancy for compound-dosed animals was calculated using the following equation: 100*(1−vi)/average vi(vehicle).
For series [4], the target named is T1, SERT. Nature of the series: in vivo. The conditions noted are these: ip, read-out: SERT occupancy ex vivo.
Procedure: as §2
A short description of series [5]: Binding in rat brain homogenates, equilibrium dialysis. The format is in vitro ADME. The conditions noted are these: brain homogenate, equilibrium dialysis 5 hours 37°C, Theravance, Inc., unpublished data. In general terms: In equilibrium dialysis free small molecules cross a membrane that holds back macromolecules.
Procedure: as §1
Series [6] deals with rat formalin model. Nature of the series: animal or person. The conditions noted are these: read-out: ED50, antinociception, drug alone.
A short description of series [7]: Plasma and brain unbound concentrations by LC/MS/MS. The following applies: rat, 75 min post-dosing.
Procedure: Plasma and brain concentrations of reuptake inhibitors were determined by LC/MS/MS. Samples (10–20 µL) were injected in a Hypurity C18 column (50×2.1 mm; 3 µM) with a flow rate of 0.5 mL/min. […] Various gradient elutions were used and the mass spectrometers (Sciex API5000 and API4000; Applied Biosystems, Foster City, CA) were operated in positive ion multiple reaction monitoring mode.
For the pharmacokinetic and bioanalytical analyses, free plasma and free brain concentrations were calculated using the in vitro unbound fractions in rat plasma and brain homogenates, respectively.
Series [8] relates to rat RotaRod test. The conditions noted are these: morphine 3 mg/kg SC alone, 60 min post-dose; statistically significant.
Series [9] addresses NET (Rattus norvegicus, UniProt Q63380). In words: in vivo. The conditions noted are these: ip, read-out: NET occupancy ex vivo.
Procedure: as §2
Series [10] relates to SERT. The following applies: therapeutic dose of 60 mg; cited from earlier work.
[11] abbreviates: 10 mg/kg IP, drug alone, mean ± SEM.

Read-outs that look alike come from different tables or passages of the source.

NET, sequence (Q63380 1-617): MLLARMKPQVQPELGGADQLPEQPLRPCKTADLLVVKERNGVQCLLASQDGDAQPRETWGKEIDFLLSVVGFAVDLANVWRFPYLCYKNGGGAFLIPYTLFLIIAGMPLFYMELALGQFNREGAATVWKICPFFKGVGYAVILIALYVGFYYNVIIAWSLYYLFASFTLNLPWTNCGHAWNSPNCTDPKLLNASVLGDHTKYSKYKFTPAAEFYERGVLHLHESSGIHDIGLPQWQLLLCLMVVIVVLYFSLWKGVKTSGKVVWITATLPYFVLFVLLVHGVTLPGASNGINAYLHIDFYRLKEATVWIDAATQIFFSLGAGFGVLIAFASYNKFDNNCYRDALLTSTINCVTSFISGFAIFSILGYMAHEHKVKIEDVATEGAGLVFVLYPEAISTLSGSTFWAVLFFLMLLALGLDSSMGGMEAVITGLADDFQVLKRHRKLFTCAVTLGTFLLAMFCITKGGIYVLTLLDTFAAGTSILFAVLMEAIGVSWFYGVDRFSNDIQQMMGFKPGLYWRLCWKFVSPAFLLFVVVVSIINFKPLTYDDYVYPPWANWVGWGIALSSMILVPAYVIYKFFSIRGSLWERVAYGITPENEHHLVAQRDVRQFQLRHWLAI

Consider `CNCC[C@@H](Oc1ccccc1C)c1ccccc1` [atomoxetine], for which the fraction unbound at 5 h, 1 µM in series [1] was determined as 0.18. The inhibition of flinching was 4±11% in series [2] (3 mg/kg IP, drug alone, mean ± SEM) and 19±6% in series [2] (setting [11]). Moreover, in series [3], the “SERT occupancy at doses that exhibited synergy with morphine” value is reported as 35 to 64%. Also, the receptor occupancy at 3 mg/kg in series [4] was 35 ± 9%. The receptor occupancy at 10 mg/kg in [4] was found to be 64 ± 5%. The fraction unbound at 5 h, 5 µM in [5] is 0.021. Also, in series [6], the ED50 amounted to 27.8 mg/kg. In addition, the concentration at 75 min in series [7] (in vivo, 10 mg/kg, [Brain]unbound, atomoxetine 10 mg/kg, − morphine, mean ± SD) amounted to 58.2 ± 10.9 ng/g; in [7] (in vivo, 10 mg/kg, [Plasma]unbound, atomoxetine 10 mg/kg, − morphine, mean ± SD), 50.9 ± 5.8 ng/mL; in [7] (in vivo, [Brain]unbound, atomoxetine 10 mg/kg + morphine 3 mg/kg) it was 52.6 ± 14.4 ng/g; in series [7] (in vivo, [Plasma]unbound, atomoxetine 10 mg/kg + morphine 3 mg/kg), 57.9 ± 12.5 ng/mL.
For the compound `Cc1nccn1CC1CCc2c(c3ccccc3n2C)C1=O` (stereo not shown) [ondansetron], in series [2] (rat, in vivo), the “antinociceptive activity, alone” value is “did not exhibit antinociceptive activity”; the “effect on antinociceptive response to duloxetine and morphine” value is “potentiated the antinociceptive response”; the “effect on antinociceptive response to fluoxetine and morphine” value is given as “failed to potentiate the antinociceptive response”.
In the case of `CN1CC[C@]23c4c5ccc(O)c4O[C@H]2[C@@H](O)C=C[C@H]3[C@H]1C5` [morphine], the inhibition of flinching in series [2] (1 mg/kg SC, alone, mean ± SEM) was 18±5%. The “inhibition of flinching (decrease in nociceptive behavior)” value in series [2] (3 mg/kg SC, alone, mean ± SEM) is listed as 77%±6. Also, in series [6], the 50% effective dose (ED50) was determined as 2.3 mg/kg. Also, in series [8], the “reduction in walking time” value is 65±12%.
Consider `CNCCC(Oc1ccc(C(F)(F)F)cc1)c1ccccc1` (stereo not shown) [fluoxetine], for which the fraction unbound at 5 h, 1 µM in series [1] amounted to 0.067. The inhibition of flinching in [2] (setting [11]) came to 9±4%. Also, the fraction unbound at 5 h, 5 µM in [5] stood at 0.0045.
`C=CCN1CC[C@]23c4c5ccc(O)c4O[C@H]2C(=O)CC[C@@]3(O)[C@H]1C5` [naloxone]: the “effect on atomoxetine-induced antinociception” value in series [2] (naloxone 5 mg/kg IP, atomoxetine 10 and 30 mg/kg IP) is reported as “failed to attenuate”. Besides, in series [2] (naloxone 5 mg/kg IP, morphine 3 mg/kg, p<0.001), the “effect on morphine-induced antinociception” value was “effectively blocked”.
For `CCOc1ccccc1O[C@@H](c1ccccc1)[C@@H]1CNCCO1` [esreboxetine], in series [2] (rat, in vivo), the inhibition of flinching stood at 17±9%. Besides, the receptor occupancy at 10 mg/kg in [4] was 3 ± 5%; in series [9], 82 ± 5%. In addition, the concentration at 75 min in series [7] (brain, intraperitoneal, 10 mg/kg, [Brain]unbound, esreboxetine 10 mg/kg, − fluoxetine − morphine) amounted to 20.4 ± 14.4 ng/g; in series [7] (brain, intraperitoneal, [Brain]unbound, esreboxetine 10 mg/kg + fluoxetine 1 + morphine 1 mg/kg), 25 ± 5.8 ng/g; in [7] (brain, intraperitoneal, [Brain]unbound, esreboxetine 10 mg/kg + morphine 1 mg/kg), 12.7 ± 9.9 ng/g; in [7] (plasma, intraperitoneal, 10 mg/kg, [Plasma]unbound, esreboxetine 10 mg/kg, − fluoxetine − morphine), 33.4 ± 12.2 ng/mL; in series [7] (plasma, intraperitoneal, [Plasma]unbound, esreboxetine 10 mg/kg + fluoxetine 1 + morphine 1 mg/kg), 31.2 ± 8.6 ng/mL; in [7] (plasma, intraperitoneal, [Plasma]unbound, esreboxetine 10 mg/kg + morphine 1 mg/kg), 21 ± 17.7 ng/mL.
Compound `CNCC[C@H](Oc1cccc2ccccc12)c1cccs1` [duloxetine] came in with a free fraction (fraction unbound) at 5 h, 1 µM in series [1] of 0.031. In series [2] (5 mg/kg IP, drug alone, mean ± SEM), this compound returned an inhibition of flinching of 19±12%. Besides, the “interaction with morphine at higher doses” value in series [2] (higher doses of duloxetine, antinociceptive in the absence of morphine, data not shown) is listed as “exhibited additivity with morphine”. For the same compound, the fraction unbound at 5 h, 5 µM in [5] was 0.007. Besides, in [10], the “occupancy of SERT by positron emission tomography” value was “near-maximal occupancy”. Also, the ED50 in [6] worked out at 10.9 mg/kg. Moreover, the concentration at 75 min worked out at 13 ± 1.5 ng/g in series [7] (brain, intraperitoneal, 5 mg/kg, [Brain]unbound, duloxetine 5 mg/kg, − ondansetron − morphine); 16.5 ± 4.1 ng/g in [7] (brain, intraperitoneal, [Brain]unbound, duloxetine 5 mg/kg + ondansetron 3 + morphine 1 mg/kg); 4.98 ± 1.4 ng/mL in series [7] (plasma, intraperitoneal, 5 mg/kg, [Plasma]unbound, duloxetine 5 mg/kg, − ondansetron − morphine); 4.55 ± 0.7 ng/mL in series [7] (plasma, intraperitoneal, [Plasma]unbound, duloxetine 5 mg/kg + ondansetron 3 + morphine 1 mg/kg).

These data come from paper PMC3787017, “Relative Contributions of Norepinephrine and Serotonin Transporters to Antinociceptive Synergy between Monoamine Reuptake Inhibitors and Morphine in the Rat Formalin Model” (PLoS ONE, 2013).
